{
  "source": "patent US8552058B2",
  "about": "“Application of L-n-butylphthalide in preventing and treating dementia” (CSPC Zhongqi Pharmaceutical Technology (Shijazhuang) Co., …, priority 2004, dated 2013)",
  "type_in_all_cases": "in vivo, Wistar rats",
  "key": {"[1]": {"test_system": "rats with permanent ligation of bilateral common carotid arteries (2-VO model)", "test": "Morris' water maze (training latency, platform exploration) in 2-VO hypoperfusion model", "details": "for amelioration of impaired short-term memory and spatial orientation (overall conclusion): 2-VO rats with poor blood supply to brain, L-NBP at 10 mg/kg, 10 mg/kg"}, "[2]": {"test_system": "Superoxide dismutase (SOD)", "test": "SOD activity in cortex and hippocampus of hypoperfused (2-VO) rats", "details": "10 mg/kg"}, "[3]": {"test_system": "malondialdehyde (MDA)", "test": "MDA content in cortex and hippocampus of hypoperfused (2-VO) rats", "details": "10 mg/kg"}, "[4]": {"test_system": "choline acetyltransferase (ChAT)", "test": "ChAT activity in cortex and hippocampus of hypoperfused (2-VO) rats", "details": "10 mg/kg"}, "[5]": {"test_system": "neurons, substantia alba of optic tracts and GFAP-positive astrocytes in brain", "test": "Pathological and immunohistochemical detection (H-E, K-B, GFAP staining) in 2-VO rats", "description": "Male Wistar rats, which were 10-weeks old and weighed approximately 280 grams, were used. 5 animals were placed in each cage, while the room temperature was kept at 23° C., with food and water freely accessible. Rats were anaesthetized with sodium pentobarbital (40 mg/kg), then bilateral common carotid arteries were exposed and the envelope of common carotid arteries and vagus nerve was carefully separated. For the hypoperfusion model group, bilateral common carotid arteries were ligated with 5-0 silk thread. For the sham surgery group, the same operation was conducted but with no ligation of bilateral common carotid arteries. A little of sterile crystalline sulfanilamide powder was applied on the wound after the surgery, then the skin was sutured. One month after the surgery, water maze and step-through test were performed. Rats were randomly assigned into 8 groups, with 10 animals per group. 1) sham surgery group: the same operation as that in hypoperfusion group was conducted but without ligation of bilateral common carotid arteries; 2) solvent control group: only vegetable oil was orally administered; 3) DL-NBP 10 mg/kg group; 4) DL-NBP 30 mg/kg group; 5) L-NBP 10 mg/kg group; 6) L-NBP 30 mg/kg group; 7) D-NBP 30 mg/kg group; Respective medicines or solvent were drenched since the 10th day after the surgery. Water maze experiments were performed on the 29-33rd days since the surgery, while step-through tests were performed on the 34-35th days since the surgery. Animals were killed for biochemical assay or pathological examination on the 36th day. In all the ethological tests, medicines were administered 40 minutes prior to respective test. 4-6 animals were chosen from each group randomly. After the ethological experiments, rats were anaesthetized with pentobarbital (100 mg/kg ip). Animal's skin and thorax was sequentially cut open and the heart was sufficiently exposed. Left tip of the heart was cut open, a perfusion needle was inserted along the aorta. After clamping with hemostat, physiological saline was infused. […]"}, "[6]": {"test_system": "rats with continuous perfusion of Aβ (1-40) into lateral ventricle", "test": "Morris' water maze and working memory test after continuous i.c.v. perfusion of Aβ (1-40)", "details": "for search strategy after 5 days of training / latency after 5 days of training: Aβ (1-40) i.c.v. rats; for latency after 5 days of training: mean±standard error, model 30.18±4.81, sham 13.02±2.77, p<0.05 vs model", "description": "For Morris' Water Maze Automatic Monitor and experimental protocols, reference may be made to the experiments of learning and memory damage of rats induced by brain hypoperfusion.\nMale Wistar rats, which were 10-weeks old and weighed approximately 280 grams, were used. One animal was placed in one cage, while the room temperature was kept at 23° C., with food and water freely accessible. Rats were anaesthetized with sodium pentobarbital (40 mg/kg), and were fixed to stereotaxic apparatus with the position of ventral decubitus. Head skin was cut open, a cannula for Aβ (1-40) perfusion was implanted into right ventricle. According to the stereotaxic profile of rat brain by Paxions and Watson, the implantation site was located 0.3 mm behind and 1.1 mm in the right side of anterior fontanelle, with the depth of 4.0 mm. The cannula was connected to a micro-osmotic pump. The pump was placed on the back of the rat. Aβ (1-40) was dissolved in 35% acetonitrile/0.1% trifluroacetic acid, and was continuously perfused intracerebroventricularly (i.c.v.) at 300 pmol/day, while only the solvent (35% acetonitrile/0.1% trifluroacetic acid) was perfused in the control group.\nRats were randomly classified into […] groups, with 10 animals per group. 1) the sham surgery group: only 35% acetonitrile/0.1% trifluroacetic acid+solvent was perfused into the ventricles of the rats; 2) the model group: Aβ (1-40)+solvent; 3) Aβ (1-40)+L-NBP 10 mg/kg group; 4) Aβ (1-40)+L-NBP 30 mg/kg group. Respective drug or solvent was drenched since the 2nd day after the surgery. The water maze experiment was performed on the 9-13 day after the surgery, while the platform exploration experiment was performed on the 13th day, and the working memory test was performed on the 14-16th days. Animals were decapitated to remove brains for biochemical assay on the 17th day. In all ethological tests, medicines were administered 40 minutes prior to the respective test.\nThe water maze training experiment was performed on the 9-13th day after icv Aβ (1-40), and the platform exploration experiment was performed on the 13 day after that. The working memory test was performed on the 14-16th day after icv Aβ (1-40) (see the figure above), which investigated the ability of rapid learning and spatial memory in animals when the platform and quadrant were changed, based on the fact that animals had memorized in some extent after training and platform exploration experiment. Experimental procedure was similar to the standard water maze training experiment except that the platform's location was changed every day. The experiment was conducted five times every day, allowing the rats to start swimming from five water-entry sites respectively. […] In the following 4 experiments, the location of the platform was kept constant, yet the water entry sites were within different quadrants. The latency of working memory was calculated by averaging those of the 2-5th experiments, and the ability of working memory of each rat was calculated by averaging the experimental values in 3 days.\nAll results were expressed in mean±standard error. Comparison of latencies between groups in water maze experiment was performed using two-factor analysis of variance in replicate. Comparison between groups was performed using post hoc LSD or Turkey test. Platform exploration test in water maze experiment, working memory test and biochemical assay were analyzed using one-factor analysis of variance. A difference was considered significant when p<0.05."}},
  "note": "Entries after “also recorded” stand apart in the source; their conditions may differ.",
  "data": [
    {"smiles": "CCCC[C@@H]1OC(=O)c2ccccc21", "note": "[L-NBP, L-n-butylphthalide]", "values": [
      {"measurement": "detention time in the target quadrant (platform exploration test, 60 seconds free swimming)", "setting": "[1]; 10 mg/kg oral, 2-VO rats, mean±standard error, solvent control 14.40±0.73, sham 17.73±1.19, p<0.05 vs solvent control", "value": "17.62 ± 1.27", "unit": "s"},
      {"measurement": "latency (time required for finding the platform) after 5 days of training", "setting": "[1]; 10 mg/kg oral, 2-VO rats, mean±standard error, solvent control 47.6±5.88, sham surgery 12.6±3.34, p<0.001 vs solvent control", "value": "26.85 ± 5.98", "unit": "s"},
      {"measurement": "search strategy after 5 days of training", "setting": "[1]; 10 mg/kg oral, 2-VO rats, solvent control still peripheral and random", "value": "changed from peripheral and random to purposive and linear"},
      {"measurement": "amelioration of impaired short-term memory and spatial orientation (overall conclusion)", "setting": "[1]", "value": "could significantly ameliorate"},
      {"measurement": "amelioration of impaired short-term memory and spatial orientation (overall conclusion)", "setting": "[1]; listed as L-n-butylphthalide", "value": "could significantly improve; also recorded: could significantly ameliorate"},
      {"measurement": "SOD activity in hippocampus after treatment (in words)", "setting": "[2]; 2-VO rats, p<0.05", "value": "returned close to the normal level"},
      {"measurement": "SOD activity, hippocampus", "setting": "[2]; hypoperfused rats, n = 7-9, solvent control 81.16 ± 6.84, sham 57.90 ± 7.41, p<0.05 vs solvent control", "value": "57.60 ± 3.86", "unit": "NU/mg protein"},
      {"measurement": "SOD activity, cortex", "setting": "[2]; hypoperfused rats, n = 7-9, solvent control 114.42 ± 7.82, sham 100.07 ± 3.64", "value": "98.84 ± 5.53", "unit": "NU/mg protein"},
      {"measurement": "reduction of MDA content in cortex", "setting": "[3]; 2-VO rats, vs model group, p<0.001", "value": 20.7, "unit": "%"},
      {"measurement": "MDA content, hippocampus", "setting": "[3]; hypoperfused rats, n = 7-9, solvent control 3.63 ± 0.45, sham 3.03 ± 0.12", "value": "3.42 ± 0.12", "unit": "nmol/mg protein"},
      {"measurement": "MDA content, cortex", "setting": "[3]; hypoperfused rats, n = 7-9, solvent control 3.91 ± 0.22, sham 3.13 ± 0.10, p<0.001 vs solvent control", "value": "3.10 ± 0.09", "unit": "nmol/mg protein"},
      {"measurement": "improvement of cortical ChAT activity as compared with the model group", "setting": "[4]; continuous administration for 16 days, 2-VO rats, p<0.05", "value": 37.1, "unit": "%"},
      {"measurement": "ChAT activity, cortex", "setting": "[4]; hypoperfused rats, n = 7-9, solvent control 65.6 ± 15.1, p<0.05 vs solvent control", "value": "104.3 ± 8.2 % of sham"},
      {"measurement": "ChAT activity, hippocampus", "setting": "[4]; hypoperfused rats, n = 7-9, solvent control 102.6 ± 15.1", "value": "110.0 ± 13.5 % of sham"},
      {"measurement": "number of GFAP-positive astrocytes (immunohistochemistry)", "setting": "[5]; 10 mg/kg", "value": "greatly reduced"},
      {"measurement": "sparse substantia alba / vacuola in optic tracts (K-B staining)", "setting": "[5]; 10 mg/kg extended administration", "value": "significant reduction of vacuola"},
      {"measurement": "neuronal damage in cortex and hippocampal CA1 induced by hypoperfusion (H-E staining)", "setting": "[5]; 10 mg/kg, 5 weeks after ligation", "value": "could be significantly ameliorated"},
      {"measurement": "search strategy after 5 days of training", "setting": "[6]; 10 mg/kg oral", "value": "changed from peripheral and random to purposive and linear"},
      {"measurement": "latency after 5 days of training", "setting": "[6]; 10 mg/kg oral", "value": "27.28 ± 6.42", "unit": "s"},
      {"measurement": "search strategy after 5 days of training", "setting": "[6]; 30 mg/kg oral", "value": "changed from peripheral and random to purposive and linear"},
      {"measurement": "latency after 5 days of training", "setting": "[6]; 30 mg/kg oral", "value": "25.88 ± 5.51", "unit": "s"},
      {"measurement": "working memory (latency in 2-5th experiments)", "setting": "[6]; 10 and 30 mg/kg, days 14-16 after Aβ (1-40), model 14.05±1.88 s, sham 9.15±0.91 s, p<0.01", "value": "can significantly improve the working memory ability in a dose-dependent way; also recorded: could improve the working memory of rats in a dose-dependent manner"},
      {"measurement": "amelioration of impaired short-term memory and stereotaxic memory (overall conclusion)", "setting": "[6]; continuous perfusion of Aβ (1-40) into lateral ventricle, rats, Morris' water maze", "value": "could significantly ameliorate"}
    ]}
  ]
}
